Measured values reported in patent publication US8846709B2, “7-(3,5-dimethyl-4-isoxazolyl)-8-(methyloxy)-1H-imidazo[4,5-C]quinoline derivatives” (GlaxoSmithKline LLC, priority 2011, dated 2014).

Tested on: LPS induced IL-6 secretion from whole blood
Test: Measurement of LPS Induced IL-6 Secretion from Whole Blood
Type: cell-based
Settings: IL-6 in whole blood, LPS 200 ng/ml, 24 hours
Description: Activation of monocytic cells by agonists of toll-like receptors such as bacterial lipopolysaccharide (LPS) results in production of key inflammatory mediators including IL-6. Such pathways are widely considered to be central to the pathophysiology of a range of auto-immune and inflammatory disorders.
Compounds to be tested are diluted to give a range of appropriate concentrations of which 1 μl of the diluted stocks is added to a 96 well plate. Following addition of whole blood (130 μl) the plates are incubated at 37 degrees (5% CO2) for 30 min before the addition of 10 μl of 2.8 ug/ml LPS, diluted in complete RPMI 1640 (final concentration=200 ng/ml), to give a total volume of 140 ul per well. After further incubation for 24 hours at 37 degrees, 140 μl of PBS are added to each well. The plates are sealed, shaken for 10 minutes and then centrifuged (2500 rpm×10 min). 100 μl of the supernatant are removed and IL-6 levels assayed by immunoassay (typically by MesoScale Discovery technology) either immediately or following storage at −20 degrees. Concentration response curves for each compound was generated from the data and an IC50 value was calculated

IC50 | SMILES
> 3.16 µM | COc1cc2c(cc1-c1c(C)noc1C)ncc1nc(NCCN)n(CC3CCOCC3)c12 [Example 8, N1-(7-(3,5-dimethylisoxazol-4-yl)-8-methoxy-1-((tetrahydro-2H-pyran-4-yl)methyl)-1H-imidazo[4,5-c]quinolin-2-yl)ethane-1,2-diamine]
> 3.16 µM | COc1cc2c(cc1-c1c(C)noc1C)ncc1nc(NCCO)n(CC3CCOCC3)c12 [Example 2, 2-{[7-(3,5-dimethyl-4-isoxazolyl)-8-(methyloxy)-1-(tetrahydro-2H-pyran-4-ylmethyl)-1H-imidazo[4,5-c]quinolin-2-yl]amino}ethanol]
